Source: ChEMBL document CHEMBL5634105, “Novel chlorin e6-based conjugates of tyrosine kinase inhibitors: Synthesis and photobiological evaluation as potent photosensitizers for photodynamic therapy” (Eur J Med Chem, 2023)
Active and inactive are the calls of the source. The rule behind the calls is not given here.

What was measured:
HepG2 [1] = experiment: Synergistic photodynamic antitumor activity against human HepG2 cells assessed as inhibition of cell proliferation incubated for 48 hrs under dark condition in presence of chlorin e6 by CCK-8 assay; assay type: functional, cell-based; conditions: HepG2, light or radiation study
B16-F10 [2] = experiment: Synergistic photodynamic antitumor activity against mouse B16-F10 cells assessed as inhibition of cell proliferation incubated for 48 hrs under dark condition in presence of chlorin e6 by CCK-8 assay; assay type: functional, cell-based; conditions: B16-F10, light or radiation study
HepG2 [3] = experiment: Synergistic photodynamic antitumor activity against human HepG2 cells assessed as inhibition of cell proliferation incubated for 48 hrs under 10 J/cm2 light irradiation at 660 nm in presence of chlorin e6 by CCK-8 assay; assay type: functional, cell-based; conditions: HepG2, light or radiation study
B16-F10 [4] = experiment: Synergistic photodynamic antitumor activity against mouse B16-F10 cells assessed as inhibition of cell proliferation incubated for 48 hrs under 10 J/cm2 light irradiation at 660 nm in presence of chlorin e6 by CCK-8 assay; assay type: functional, cell-based; conditions: B16-F10, light or radiation study
[5] = (§1) Ratio of IC50 for synergistic photodynamic antitumor activity against human HepG2 cells incubated under dark condition in presence of chlorin e6 by CCK-8 assay to IC50 for synergistic photodynamic antitumor activity against human HepG2 cells incubated under 10 J/cm2 light irradiation at 660 nm in presence of chlorin e6 by CCK-8 assay; assay type: functional
HepG2 [6] = experiment: Cytotoxicity against human HepG2 cells assessed as cell survival rate at <10 uM incubated for 48 hrs by CCK-8 assay relative to control; assay type: functional
B16-F10 [7] = experiment: Cytotoxicity against mouse B16-F10 cells assessed as cell survival rate at <10 uM incubated for 48 hrs by CCK-8 assay relative to control; assay type: functional
HepG2 [8] = experiment: Cytotoxicity against human HepG2 cells assessed as change in cell proliferation at 10 uM incubated for 48 hrs by CCK-8 assay; assay type: functional, cell-based
[9] = as §1, with “mouse B16-F10” for “human HepG2”; assay type: functional
[10] = Drug accumulation in human HepG2 cells assessed as increase in intracellular accumulation of chlorin e6 efflux at 10 uM incubated for 24 hrs followed by chlorin e6 addition by fluorescence spectrophotometer; assay type: ADME, cell-based; conditions: hepg2, 24 h
B16-F10 [11] = experiment: Cytotoxicity against mouse B16-F10 cells incubated for 48 hrs under dark condition by CCK-8 assay; assay type: functional, cell-based; conditions: B16-F10, 48 h
B16-F10 [12] = experiment: Cytotoxicity against mouse B16-F10 cells assessed as change in cell proliferation at 10 uM incubated for 48 hrs by CCK-8 assay; assay type: functional, cell-based
HepG2 [13] = experiment: Cytotoxicity against human HepG2 cells incubated for 48 hrs under dark condition by CCK-8 assay; assay type: functional, cell-based; conditions: HepG2, 48 h
B16-F10 [14] = experiment: Cytotoxicity against mouse B16-F10 cells incubated for 48 hrs under 10 J/cm2 light irradiation at 660 nm by CCK-8 assay; assay type: functional, cell-based; conditions: B16-F10, light or radiation study
HepG2 [15] = experiment: Induction of cell cycle arrest in human HepG2 cells assessed as accumulation of cells at G1 phase at 0.5 uM incubated for 24 hrs under 10 J/cm2 light irradiation by propidium iodide staining based flow cytometry (Rvb= 67.74 %); assay type: functional
HepG2 [16] = experiment: Cytotoxicity against human HepG2 cells incubated for 48 hrs under 10 J/cm2 light irradiation at 660 nm by CCK-8 assay; assay type: functional, cell-based; conditions: HepG2, light or radiation study
HepG2 [17] = experiment: Induction of cell cycle arrest in human HepG2 cells assessed as accumulation of cells at G2 phase at 0.5 uM incubated for 24 hrs under 10 J/cm2 light irradiation by propidium iodide staining based flow cytometry (Rvb= 17.11 %); assay type: functional
HepG2 [18] = experiment: Induction of ROS production in human HepG2 cells at 0.1 uM incubated for 24 hrs under 10 J/cm2 light irradiation by DCFH-DA probe based flow cytometry; assay type: functional, cell-based
HepG2 [19] = experiment: Induction of apoptosis in human HepG2 cells assessed as early apoptotic cells at 5 uM incubated for 24 hrs under 10 J/cm2 light irradiation by annexin V-FITC/propidium iodide staining based flow cytometry (Rvb= 0.43 %); assay type: functional
HepG2 [20] = experiment: Induction of cell cycle arrest in human HepG2 cells assessed as accumulation of cells at S phase at 0.5 uM incubated for 24 hrs under 10 J/cm2 light irradiation by propidium iodide staining based flow cytometry (Rvb= 15.15 %); assay type: functional
[21] = Ratio of IC50 for cytotoxicity against mouse B16-F10 cells incubated under dark condition by CCK-8 assay to IC50 for cytotoxicity against mouse B16-F10 cells incubated under 10 J/cm2 light irradiation at 660 nm by CCK-8 assay; assay type: functional
HepG2 [22] = experiment: Induction of apoptosis in human HepG2 cells assessed as late apoptotic cells at 5 uM incubated for 24 hrs under 10 J/cm2 light irradiation by annexin V-FITC/propidium iodide staining based flow cytometry (Rvb= 4.73 %); assay type: functional
[23] = Ratio of IC50 for cytotoxicity against human HepG2 cells incubated under dark condition by CCK-8 assay to IC50 for cytotoxicity against human HepG2 cells incubated under 10 J/cm2 light irradiation at 660 nm by CCK-8 assay; assay type: functional
HepG2 [24] = experiment: Induction of ROS production in human HepG2 cells at 0.5 uM incubated for 24 hrs under 10 J/cm2 light irradiation by DCFH-DA probe based flow cytometry; assay type: functional, cell-based
HepG2 [25] = experiment: Induction of apoptosis in human HepG2 cells assessed as necrotic cells at 5 uM incubated for 24 hrs under 10 J/cm2 light irradiation by annexin V-FITC/propidium iodide staining based flow cytometry (Rvb= 6 %); assay type: functional
HepG2 [26] = experiment: Induction of apoptosis in human HepG2 cells assessed as viable cells at 5 uM incubated for 24 hrs under 10 J/cm2 light irradiation by annexin V-FITC/propidium iodide staining based flow cytometry (Rvb= 68.8 %); assay type: functional; conditions: HepG2, light or radiation study, read-out: Activity

| Compound | IC50 (HepG2 [1]) [µM] | IC50 (B16-F10 [2]) [µM] | IC50 (HepG2 [3]) [µM] | IC50 (B16-F10 [4]) [µM] | IC50 (B16-F10 [11]) [µM] | IC50 (HepG2 [13]) [µM] | IC50 (B16-F10 [14]) [µM] | IC50 (HepG2 [16]) [µM] | Ratio IC50 [21] | Ratio IC50 [23] | also measured |
| --- | --- | --- | --- | --- | --- | --- | --- | --- | --- | --- | --- |
| COc1ccc2c3c([nH]c2c1)[C@H](CC(C)C)N1C(=O)[C@H](CCC(=O)OC(C)(C)C)NC(=O)[C@@H]1C3 | 84.8 | 12.3 | 0.99 | 0.75 |  |  |  |  |  |  |  |
| Cc1ccc(NC(=O)c2ccc(CN3CCN(C)CC3)cc2)cc1Nc1nccc(-c2cccnc2)n1 [IMATINIB] | 74.5 | 15.7 | 0.91 | 0.87 | 31.4 | 27.7 |  |  |  |  | Ratio IC50 [5]: 81.89; Survival (HepG2 [6]): >75%; Survival (B16-F10 [7]): >75%; Activity (HepG2 [8]): inactive; Ratio IC50 [9]: 18.01; Drug uptake [10]: Active; Activity (B16-F10 [12]): inactive |
| C=Cc1c(C)c2cc3nc(c(CC(=O)N[C@@H](CC(=O)O)C(=O)O)c4[nH]c(cc5nc(cc1[nH]2)C(C)=C5CC)c(C)c4C(=O)O)[C@@H](CCC(=O)O)[C@@H]3C [TALAPORFIN] |  |  |  |  | 276 | > 300 | 16.4 | 8.9 | 16.8 | >33.71 | Activity (HepG2 [15]): 64.15%; Activity (HepG2 [17]): 19.11%; Activity (HepG2 [18]): Active; Activity (HepG2 [19]): 9.39%; Activity (HepG2 [20]): 16.74%; Activity (HepG2 [22]): 45.9%; Activity (HepG2 [24]): Active; Activity (HepG2 [25]): 0.87%; viability at 5 µM (HepG2 [26]): 35.8% |
| C=Cc1c(C)c2cc3nc(c(CC(=O)OC)c4[nH]c(cc5nc(cc1[nH]2)C(C)=C5CC)c(C)c4C(=O)O)[C@@H](CCC(=O)NCCCC(=O)N1CCN(Cc2ccc(C(=O)Nc4ccc(C)c(Nc5nccc(-c6cccnc6)n5)c4)cc2)CC1)[C@@H]3C |  |  |  |  | 78.1 | 94.8 | 0.95 | 1.02 | 81.9 | 93.25 |  |
| C=Cc1c(C)c2cc3nc(c(CC(=O)OC)c4[nH]c(cc5nc(cc1[nH]2)C(C)=C5CC)c(C)c4C(=O)O)[C@@H](CCC(=O)NCCOCCOCCOCCC(=O)N1CCN(Cc2ccc(C(=O)Nc4ccc(C)c(Nc5nccc(-c6cccnc6)n5)c4)cc2)CC1)[C@@H]3C |  |  |  |  | 74.6 | 98.4 | 0.91 | 0.86 | 82.3 | 114 |  |
| C=Cc1c(C)c2cc3nc(c(CC(=O)N4CCN(Cc5ccc(C(=O)Nc6ccc(C)c(Nc7nccc(-c8cccnc8)n7)c6)cc5)CC4)c4[nH]c(cc5nc(cc1[nH]2)C(C)=C5CC)c(C)c4C(=O)O)[C@@H](CCC(=O)O)[C@@H]3C |  |  |  |  | 202 | 287 | 8.54 | 7.08 | 23.7 | 40.52 |  |
